{"source": "patent US20170306503A1", "about": "“SYNTHETIC ACID COMPOSITIONS ALTERNATIVES TO CONVENTIONAL ACIDS IN THE OIL AND GAS INDUSTRY” (FLUID ENERGY GROUP LTD, priority 2014, published 2017)", "origin": "cited, not measured here", "settings": "gas exposure, death in 2-3 minutes"}
{"molecule": "Cl", "note": "[Hydrogen chloride gas, Hydrogen chloride]", "values": [{"measurement": "level at which death can occur", "value": "1300-2000 PPM"}]}
